Laboratory results: USRE34480E, “Naphthalocyanine compounds” (Yamamoto Kagaku Gosei Co., Ltd., priority 1983, dated 1993)
Like-named read-outs stand apart in the source and are kept apart here.

Key:
Solubility in toluene = format: physicochemical; details: for Solubility in Toluene: 1 g in 5 ml toluene, ultrasonic shaking 50° C. 10 min, then room temperature 30 min, filtered; for residue (solubility measurement in toluene): residue behind the printed solubility
Procedure: In a 20 ml test tube were placed 1 g of a naphthalocyanine compound and 5 ml of toluene. After the tube was tightly stoppered, the content was subjected to ultrasonic shaking at 50° C. for 10 min. Then, the tube was allowed to stand at room temperature for 30 min. and the content was filtered. The filtrate was concentrated to dryness. The solubility of the naphthalocyanine in toluene was calculated using the following equation. [formula] R1, R2, and R3 and R4 of naphthalocyanine compounds of the present invention can bond to 6 to 7 positions of all naphthalene nuclei of naphthalocyanine. Each of these groups can be a mixed group.

[1] = Near infrared absorption spectrum in toluene (largest absorption peak, absorptivity coefficient); format: physicochemical
Text: It is to be noted that the naphthalocyanine compounds according to the present invention are not restricted to the compounds shown in Table 2.
Near infrared absorption spectrum for toluene solution: […]

| Substance | Solubility in Toluene (Solubility in toluene) | Absorptivity coefficient (log ε) [1] | Wavelength at largest absorption peak [1] | Absorptivity coefficient (log ε) ([1]; listed as tert-amyl Cu) | Solubility in organic solvents (in words) (Solubility in toluene; organic solvents, compared with tert-butyl analogue or in general) | residue (solubility measurement in toluene) (Solubility in toluene) |
| --- | --- | --- | --- | --- | --- | --- |
| Indium tetra-tert, sec-mixed amylnaphthalocyanine [Example 4] | 7% | 5.09 | 805 nm | – | – | – |
| copper tetra-tert-amylnaphthalocyanine [Example 2] | 7% | – | 771 nm | 5.24 | – | – |
| tetra-6-tert-butylvanadylnaphthalocyanine [reference compound] | 2% | – | – | – | much lower solubility in organic solvents | – |
| tetra-tert, sec-mixed amylvanadylnaphthalocyanine [Example 3] | 7% | 5.32 | 809 nm | – | – | 0.6 g |
| tetra-tert-amylvanadylnaphthalocyanine [Example 1] | 6% | 5.37 | 808 nm | – | – | 0.6 g |
| tetra-tert-heptylvanadylnaphthalocyanine [Example 5] | 11% | 5.27 | 809 nm | – | – | – |
